According to publication PMC8815882, “Screening the pandemic response box identified benzimidazole carbamates, Olorofim and ravuconazole as promising drug candidates for the treatment of eumycetoma” (PLoS Neglected Tropical Diseases, 2022):
Like-named read-outs stand apart in the source and are kept apart here.

Test system: M. mycetomatis genome strain MM55
Test: CLSI M38-A2 based in vitro susceptibility screening (XTT or resazurin), growth at fixed concentration
Format: cell-based, Madurella mycetomatis
Conditions: Madurella mycetomatis; for Percent fungal survival at 100 µM: read-out: Percentage survival at 100um, 100 uM A (second replicate column)
[1] = mean of three replicates, read-out: Percentage survival at 25um, 25 uM mean
[2] = replicate A, read-out: Percentage survival at 25um, 25 um A
[3] = replicate B, read-out: Percentage survival at 25um, 25 uM B
[4] = replicate C, read-out: Percentage survival at 25um, 25 uM C
[5] = mean of three replicates, read-out: Percentage survival at 100um, 100 uM mean
[6] = replicate 1, read-out: Percentage survival at 100um, 100 uM A (first replicate column)
[7] = replicate 3, read-out: Percentage survival at 100um, 100 uM A (third replicate column)
[8] = mean of replicates, MM55, read-out: Percentage survival at 25um, 25 uM mean
[9] = replicate A, MM55, read-out: Percentage survival at 25um, 25 um A
[10] = replicate B, MM55, read-out: Percentage survival at 25um, 25 uM B
[11] = replicate C, MM55, read-out: Percentage survival at 25um, 25 uM C
[12] = mean of replicates, MM55, read-out: Percentage survival at 100um, 100 uM mean
[13] = replicate 1, MM55, read-out: Percentage survival at 100um, 100 uM A
[14] = replicate 2, MM55, read-out: Percentage survival at 100um, 100 uM A
[15] = replicate 3, MM55, read-out: Percentage survival at 100um, 100 uM A
[16] = first replicate column, read-out: Percentage survival at 100um, 100 uM A
[17] = second replicate column, read-out: Percentage survival at 100um, 100 uM A
[18] = third replicate column, read-out: Percentage survival at 100um, 100 uM A
[19] = mean of three, M. mycetomatis MM55, read-out: Percentage survival at 25um, 25 uM mean
[20] = replicate A, M. mycetomatis MM55, read-out: Percentage survival at 25um, 25 um A
[21] = replicate B, M. mycetomatis MM55, read-out: Percentage survival at 25um, 25 uM B
[22] = replicate C, M. mycetomatis MM55, read-out: Percentage survival at 25um, 25 uM C
[23] = mean of three, M. mycetomatis MM55, read-out: Percentage survival at 100um, 100 uM mean
[24] = replicate 1, M. mycetomatis MM55, read-out: Percentage survival at 100um, 100 uM A (first replicate column)
[25] = replicate 2, M. mycetomatis MM55
[26] = replicate 3, M. mycetomatis MM55, read-out: Percentage survival at 100um, 100 uM A (third replicate column)

`NNC(=O)c1ccncc1` [MMV002169] showed an activity at 25 µM [1] of 85.6%, an activity at 25 µM [2] of 90.1% and an activity at 25 µM [3] of 80.7%. It also gave an activity at 25 µM [4] of 85.9%, an activity at 100 µM [5] of 85.3% and an activity at 100 µM [6] of 84.8%. It also gave a Percent fungal survival at 100 µM (replicate 2) of 81.9% and an activity at 100 µM [7] of 89.3%.
`Cc1cc(CCCOc2c(C)cc(-c3noc(C(F)(F)F)n3)cc2C)on1` [MMV690467] showed an activity at 25 µM [8] of 115%, an activity at 25 µM [9] of 152% and an activity at 25 µM [10] of 84.5%. The activity at 25 µM [11] was 108%, the activity at 100 µM [12] was 79.3% and the activity at 100 µM [13] was 70.9%. For the same compound, the activity at 100 µM [14] was 103% and the activity at 100 µM [15] was 64.3%.
`CC(=O)N[C@H](C)C(=O)N[C@H](Cc1ccccc1)C(=O)O` [MMV1580845] gave an activity at 25 µM [1] of 87.9%, an activity at 25 µM [2] of 86.4% and an activity at 25 µM [3] of 86.8%. For the same compound, the activity at 25 µM [4] was 90.5%, the activity at 100 µM [5] was 86.9% and the activity at 100 µM [6] was 88.3%. The Percent fungal survival at 100 µM (replicate 2) was 84.1% and the activity at 100 µM [7] was 88.3%.
With `CCc1ccccc1OCCN1CCCCCC1` [MMV1633962] the activity at 25 µM [1] was 60.1%, the activity at 25 µM [2] was 47.9% and the activity at 25 µM [3] was 69.8%. For the same compound, the activity at 25 µM [4] was 62.5%, the activity at 100 µM [16] was 61.1% and the activity at 100 µM [5] was 61.5%. It also gave an activity at 100 µM [17] of 62.7% and an activity at 100 µM [18] of 60.6%.
`O=c1cc(Nc2ccc3ccccc3c2)[nH]c(=O)[nH]1` [MMV1581546] gave an activity at 25 µM [19] of 84.3%, an activity at 25 µM [20] of 93.6% and an activity at 25 µM [21] of 85%. It also gave an activity at 25 µM [22] of 74.5%, an activity at 100 µM [23] of 86% and an activity at 100 µM [24] of 78.9%. It also gave a Percent fungal survival at 100 µM [25] of 98.5% and an activity at 100 µM [26] of 80.4%.
With `CC(=O)O[C@H]1C[C@@]2(C)[C@@H](C[C@@H](O)[C@H]3[C@@]4(C)CC[C@@H](O)[C@@H](C)[C@@H]4CC[C@@]32C)/C1=C(\CCC=C(C)C)C(=O)O` [MMV1578575] the activity at 25 µM [19] was 83.8%, the activity at 25 µM [20] was 96.4% and the activity at 25 µM [21] was 83.3%. It also gave an activity at 25 µM [22] of 71.6%, an activity at 100 µM [23] of 84.3% and an activity at 100 µM [24] of 78.5%. The Percent fungal survival at 100 µM [25] was 89.6% and the activity at 100 µM [26] was 84.8%.
With `O=C(NC(=O)N1CCCc2ccccc21)c1ccc(Cl)cc1Cl` [MMV1782218] the activity at 25 µM (mean, read-out: Percentage survival at 25um, 25 uM mean) was 77.7%, the activity at 25 µM [2] was 84.5% and the activity at 25 µM [3] was 82%. It also gave an activity at 25 µM [4] of 66.6%, an activity at 100 µM (mean, read-out: Percentage survival at 100um, 100 uM mean) of 59.4% and an activity at 100 µM (replicate (first column), read-out: Percentage survival at 100um, 100 uM A) of 65.3%. It also gave an activity at 100 µM (replicate (second column), read-out: Percentage survival at 100um, 100 uM A) of 55.7% and an activity at 100 µM (replicate (third column), read-out: Percentage survival at 100um, 100 uM A) of 57.2%.
`CC(C)N(c1cc(-c2ccccc2)sc1C(=O)O)C(=O)[C@H]1CC[C@H](C)CC1` [MMV1634388] gave an activity at 25 µM [1] of 90%, an activity at 25 µM [2] of 89.7% and an activity at 25 µM [3] of 99.2%. For the same compound, the activity at 25 µM [4] was 81.2%, the activity at 100 µM [16] was 83.3% and the activity at 100 µM [5] was 76.1%. For the same compound, the activity at 100 µM [17] was 68.1% and the activity at 100 µM [18] was 77%.
`O=C(O)CSc1cc(NS(=O)(=O)c2cccc3cccnc23)c2ccccc2c1O` [MMV218827] was tested, and the activity at 25 µM [8] was 91.4%, the activity at 25 µM [9] was 90.9% and the activity at 25 µM [10] was 95.2%. For the same compound, the activity at 25 µM [11] was 88.2%, the activity at 100 µM [12] was 89.8% and the activity at 100 µM [13] was 82.4%. For the same compound, the activity at 100 µM [14] was 84.7% and the activity at 100 µM [15] was 102%.
`CN(C(=O)C1(c2ccc(Cl)cc2)CCC1)c1ccccc1` [MMV1581030] showed an activity at 25 µM [8] of 63.9%, an activity at 25 µM [9] of 61.1% and an activity at 25 µM [10] of 107%. For the same compound, the activity at 25 µM [11] was 23.2%, the activity at 100 µM [12] was 9.02% and the activity at 100 µM [13] was 16%. It also gave an activity at 100 µM [14] of 1.46% and an activity at 100 µM [15] of 9.58%.
`Cc1nc(N(C)C(=O)Cc2ccc(-c3ccccn3)cc2)sc1S(N)(=O)=O` [MMV1580486] showed an activity at 25 µM [8] of 82.6%, an activity at 25 µM [9] of 102% and an activity at 25 µM [10] of 96.5%. The activity at 25 µM [11] was 49.6%, the activity at 100 µM [12] was 83.5% and the activity at 100 µM [13] was 93.3%. The activity at 100 µM [14] was 93.6% and the activity at 100 µM [15] was 63.7%.
In the case of `CC[C@@]1(O)C(=O)OCc2c1cc1n(c2=O)Cc2cc3c(CN(C)C)c(O)ccc3nc2-1` [MMV1633678], the activity at 25 µM [1] is reported as 101%, the activity at 25 µM [2] is reported as 86.9% and the activity at 25 µM [3] is reported as 110%. It also gave an activity at 25 µM [4] of 108%, an activity at 100 µM [16] of 94.8% and an activity at 100 µM [5] of 89.5%. For the same compound, the activity at 100 µM [17] was 86.7% and the activity at 100 µM [18] was 86.9%.
